According to US6998383B2, “Inhibitors of receptor activator of NF-κB and uses thereof” (Research Development Corporation, priority 2001, dated 2006):

Experiments:
[1] = test system: ERK; test: RANKL-mediated ERK activation in RAW264.7 cells (phospho-specific immunoblot); assay type: cell-based, mouse; conditions: peptide 6 h, RANKL 10 nM 15 min (FIG. 5B)
Protocol: (§1) FIG. 5B and FIG. 5C show inhibition of RANKL-mediated ERK and p38 activation by L-T6DP-1. Whole cell extracts (30 μg) from FIG. 5A were separated by 10% SDS-PAGE and electroblotted onto a nitrocellulose membrane. The membranes were first immunoblotted with the indicated phospho-specific antibody and then stripped and re-probed with the indicated antibodies as described below.
(§2) Stimulation of the receptor activator of NF-κB activates members of the MAPK family including JNK, ERK and p38 kinase. The ability of the TRAF6 binding peptides to inhibit the receptor activator of NF-κB ligand-induced JNK, ERK, and p38 kinase activation was examined in RAW264.7 cells. […] Similar to the results with JNK, only L-T6DP-1 was able to block ERK (FIG. 5B) and p38 kinase (FIG. 5C) activation induced by the receptor activator of NF-κB ligand in RAW264.7 cells.

[2] = target: T1, TRAF2 binding to the cytoplasmic domain of RANK (Homo sapiens, UniProt Q12933); test: Competitive GST-pull down assay, TRAF2 binding to RANK cytoplasmic domain; conditions: 100 μM peptide, FLAG-TRAF2 293 cell extract (FIG. 4C)
T1 construct: expressed in transfected cells; host or cells: human 293 cells (TRAF lysate); The GST-RANK fusion was purified as previously described
T1 sequence (Q12933 1-501): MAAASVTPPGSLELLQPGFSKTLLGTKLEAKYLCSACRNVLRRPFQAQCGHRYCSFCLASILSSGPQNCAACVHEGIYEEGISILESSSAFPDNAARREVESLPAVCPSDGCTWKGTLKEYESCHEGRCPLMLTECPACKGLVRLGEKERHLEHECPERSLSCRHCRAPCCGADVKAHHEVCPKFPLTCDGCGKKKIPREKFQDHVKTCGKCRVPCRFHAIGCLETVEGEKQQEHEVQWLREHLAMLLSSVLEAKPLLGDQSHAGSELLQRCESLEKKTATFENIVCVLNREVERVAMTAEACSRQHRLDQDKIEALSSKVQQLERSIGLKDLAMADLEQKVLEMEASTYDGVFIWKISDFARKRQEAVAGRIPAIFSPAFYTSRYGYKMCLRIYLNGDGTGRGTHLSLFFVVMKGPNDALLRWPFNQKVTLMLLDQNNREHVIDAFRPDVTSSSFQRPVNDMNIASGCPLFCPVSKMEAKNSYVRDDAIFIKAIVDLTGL
Protocol: Cellular extracts from human 293 cells transfected with either FLAG-TRAF2, -TRAF5, or -TRAF6 were mixed with GST or GST-RANKed in the absence or presence of 100 μM of the indicated peptides. A GST-pull down assay was performed as described below. The bound TRAFs were visualized by immunoblotting with anti-FLAG antibodies.
Equivalent amounts of GST or GST-RANK cytoplasmic domain (GST-RANKed) fusion protein attached to 20 μl of glutathione agarose beads were mixed with lysates (50 μg) from 293 cells programmed to express the epitope-tagged TRAF protein and the indicated peptides in binding buffer (20 mM TRIS, pH 8, 150 mM NaCl, 1 mM DTT, 2 mM EDTA, and 0.1% NP-40) and allowed to rotate for 1 h at 4° C. The beads were collected by centrifugation, washed three times in binding buffer, and then washed once in low-salt buffer (20 mM TRIS, pH 8, 50 mM NaCl, and 1 mM DTT). Bound proteins were eluted with addition of SDS-sample buffer and boiled. The eluted proteins were subjected to 7.5% SDS-PAGE and western blot analysis was performed with anti-FLAG antibodies.
The cytoplasmic domain of RANK interacts with many TRAF molecules, including TRAF1, 2, 3, 5, and 6 (7-9, 11, 12). While TRAF1, 2, 3, and 5 interact with the c-terminal tail of receptor activator of NF-κB, TRAF6 interacts with a membrane proximal region of the cytoplasmic domain of the receptor activator of NF-κB. […]

[3] = test system: bone marrow-derived mouse monocytes; test: RANKL and M-CSF-mediated osteoclast differentiation in bone marrow-derived mouse monocytes (TRAP staining); assay type: cell-based
Protocol: After 6-7 days, the cells were fixed and stained for TRAP. The numbers of multi-nucleated, TRAP positive osteoclasts were counted.
Mouse-derived monocytes were plated in 48-well plates and costimulated as in FIG. 3A with murine M-CSF (10 ng/ml) and RANKL (30 ng/ml) in the absence (left panel) or presence of the indicated peptides. After 6-7 days, the cells were fixed and stained for TRAP. A representative field from each well was taken at a magnification of 10×.
Primary bone marrow monocytes (BM) or RAW264.7 cells were cultured in 48-well dishes at a density of 1×10^5 cells/well or 2×10^3 cells/well, and then treated with the indicated factors at the beginning of the culture and during a medium change on day 3. Osteoclast formation was assessed by counting the total number of multi-nucleated (>3 nuclei), TRAP-positive cells present per well between day 7 and 10 (BM) or on day 5 (RAW264.7) (30).
To further support the results obtained from the RAW264.7 cell line, the ability of these peptides to inhibit RANKL-mediated osteoclast differentiation in primary mouse-derived monocytes was tested. Costimulation of bone marrow-derived monocytes with RANKL and M-CSF cause osteoclast differentiation after 7-10 days, as determined by staining multi-nucleated, TRAP positive osteoclasts (30). Similar to the results with RAW264.7 cells, both L-T6DP-1 and L-T6DP-2 inhibited the development of TRAP positive osteoclast in a dose-dependent manner and L-T6DP-1 was much more efficient (FIGS. 3A and 3B).

[4] = test system: p38 kinase; test: RANKL-mediated p38 kinase activation in RAW264.7 cells (phospho-specific immunoblot); assay type: cell-based, mouse; conditions: peptide 6 h, RANKL 10 nM 15 min (FIG. 5C)
Protocol: as §1, §2

Substance: L-T6DP-1: Kaposi fibroblast growth factor signal sequence hydrophobic domain attached to murine RANK peptide containing the known TRAF6 binding domain (AAVALLPAVLLALLAPRKIPTEDEYTDRPSQPST; PEPTIDE Peptide L-T6Bp-1)
- RANKL-induced ERK activation [1]: able to block
- TRAF2 binding to the cytoplasmic domain of RANK [2]: neither L-T6DP-1 nor L-T6DP-2 inhibited
- development of TRAP positive osteoclasts ([3]; M-CSF 10 ng/ml and RANKL 30 ng/ml (FIGS. 3A, 3B)): inhibited
- multi-nucleated osteoclasts ([3]; M-CSF and RANKL, 30 μM peptide, cells still TRAP positive (FIG. 3B)): multi-nucleated osteoclast were not observed
- osteoclasts ([3]; M-CSF and RANKL, 100 μM peptide (FIG. 3B)): no osteoclasts were observed
- RANKL-induced p38 kinase activation [4]: able to block
